Results published in ChEMBL document CHEMBL4431332, “Identification and Investigation of Novel Binding Fragments in the Fatty Acid Binding Protein 6 (FABP6)” (J Med Chem, 2016).
pKd: −log10 of the molar value.

Tests used:
Gastrotropin = target: T1, Gastrotropin (Homo sapiens, UniProt P51161); assay: Binding affinity to recombinant human N-terminal His6 and Avi-tagged FABP6 expressed in Escherichia coli NEB cells by surface plasmon resonance method
T1 sequence (P51161 whole entry): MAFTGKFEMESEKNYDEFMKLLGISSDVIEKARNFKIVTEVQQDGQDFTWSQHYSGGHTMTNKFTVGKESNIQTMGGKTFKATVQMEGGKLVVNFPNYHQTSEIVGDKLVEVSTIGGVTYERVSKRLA

[1] = target: T2, Fatty acid-binding protein, liver (Homo sapiens, UniProt P07148); assay: Binding affinity to recombinant human N-terminal His6 and Avi-tagged FABP1 expressed in Escherichia coli NEB cells by surface plasmon resonance method
T2 sequence (P07148 whole entry): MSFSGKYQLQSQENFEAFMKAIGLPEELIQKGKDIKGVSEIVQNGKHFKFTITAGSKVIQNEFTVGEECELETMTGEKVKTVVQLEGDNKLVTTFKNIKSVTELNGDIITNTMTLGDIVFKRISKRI

| Structure (SMILES) | pKd (Gastrotropin) | pKd [1] |
| --- | --- | --- |
| CS(=O)(=O)N1CCCC(NCc2ccccc2)CC1 (centres undefined) | 3.52 | < 3.00 |
| Cc1ccccc1CN1CCN(C(=O)c2cccnc2)CC1 | 3.54 | < 3.00 |
| Cc1cc2nc(N)[nH]c2cc1C |  | < 3.00 |
| Cc1nc(Cn2cnc3cc(C)c(C)cc32)cs1 | 3.40 |  |
| O=C(c1ccco1)N1CCN(Cc2ccc3c(c2)OCO3)CC1 | 3.68 | 3.40 |
| c1ccc(CNc2ccccn2)cc1 | 3.52 | 3.52 |

Further lines, results first:

| pKd (Gastrotropin) | pKd [1] | Structure (SMILES) |
| --- | --- | --- |
| 4.40 | < 3.00 | O=C1NCCOc2ccc(F)cc21 |
| 4.10 | < 3.00 | COC(=O)c1cscc1-c1ccc(C(=O)N2CCOCC2)o1 |
| 3.68 | < 3.00 | CN1CCN(C(=O)c2ccc(=O)n(Cc3ccc(Cl)cc3)c2)CC1 |
| 3.70 | 3.05 | Nc1c2c(nc3ccccc13)CCCC2 [TACRINE] |
| 4.89 |  | Nc1nc2ccc(C(=O)c3ccccc3)cc2[nH]1 |
